Reference: paper PMC9525908, “α-Crystallin chaperone mimetic drugs inhibit lens γ-crystallin aggregation: Potential role for cataract prevention” (The Journal of Biological Chemistry, 2022)
Changes are numbered by the printed parent chain. “Also recorded” adds a separate entry of the source.

What was measured:
Type in all cases: biochemical
bovine gamma crystallins = experiment: Screen: H2O2 and heat mediated aggregation of bovine gamma crystallins, turbidimetry at 600 nm; conditions: 500 μM compound, H2O2 with or without added thermal stress
Description: For the initial screen, a microtiter plate assay was developed in which bovine crystallins (2 mg/ml of 50 mM K3PO4 buffer, pH 7.2 [buffer A]) were exposed to H2O2 at varying concentrations (1–50 mM) for 12 to 36 h, upon which turbidity developed (at 50 mM H2O2 concentration) in both β- and γ-crystallins (Fig. 1, A and B). […] This was determined by turbidimetry at 600 nm (Fig. 1C) and confirmed using visual assessment of solution transparency over a fine text as well as the presence of cloudy aggregates visible by dark field microscopy (Fig. 1D). The drug:protein stoichiometric ratio was about 5:1. The wavelength of 600 nm was chosen to minimize interference by colored compounds, many of which absorb below 500 nm (Fig. 1E).
Wells were filled with 90 μl calf γ-crystallin-rich protein solution (pool 4 at 2 mg/ml) followed by 0.5 to 5.0 μl of drug (all 10 mM stock solution in DMSO) as supplied by the manufacturer and 10 μl H2O2 (450 mM stock solution in water) and sealed with sticky Applied Biosystems MicroAmp Clear Adhesive films (Life Technologies). Control wells received DMSO only. […] In order to quantitate the impact of the drugs on aggregation, a fitness plot was created (Fig. 1 C) that allowed us to identify wells with enhanced/worsening versus suppressed crystallin aggregation. In addition, aggregation in each well was also visually assessed by two independent “blinded” readers for the ability to read fine print through each well by placing the plates over small font text (Fig. 1D). Both machine and visual readouts were reconciled in order to increase robustness.

Bovine γ-crystallins = experiment: Thermal aggregation (72 °C) turbidity assay, bovine γ-crystallins (pool 4); conditions: for Thermal denaturation inhibitory activity in subscreen: 150 μM; for Thermal denaturation inhibitory activity in subscreen / % Suppression: 72 °C 20 min; for % Suppression: 75 μM protein, 125 μM or less inhibitor (1.7:1)
Description: Candidate compounds were rescreened using thermal denaturation upon heating at 72 °C for 20 min according to Chen et al. ([36]) in order to select for compounds with chaperone rather than antioxidant activity since a large number of the latter already exist in the cataract field ([37]).
(§1) For a review, see the study by Roskamp et al. ([38]). […] For the mechanistic studies below these two compounds together with either drug M, chosen mostly as negative control, or the entire set of six compounds were used for comparison purpose, whereby the words “drug” or “compound” are used interchangeably in the studies later.
All assays were carried out manually in CORNING #9017 Costar Assay 96-well plates. Wells were filled with 90 μl calf γ-crystallin-rich protein solution (pool 4 at 2 mg/ml) followed by 0.5 to 5.0 μl of drug (all 10 mM stock solution in DMSO) as supplied by the manufacturer and 10 μl H2O2 (450 mM stock solution in water) and sealed with sticky Applied Biosystems MicroAmp Clear Adhesive films (Life Technologies). Control wells received DMSO only. Plates were shaken for 2 min and incubated from 24 to 72 h in a culture room at 37 °C. […] A second reading was performed following a heat shock of 20 min at 72 °C as described by Chen et al. ([36]) in order to capture drugs with heat-resistant chaperone activity. In order to quantitate the impact of the drugs on aggregation, a fitness plot was created (Fig. 1 C) that allowed us to identify wells with enhanced/worsening versus suppressed crystallin aggregation. In addition, aggregation in each well was also visually assessed by two independent “blinded” readers for the ability to read fine print through each well by placing the plates over small font text (Fig. 1D). Both machine and visual readouts were reconciled in order to increase robustness.
(§2) Final DMSO concentration was 5% including in control samples. Microtiter plates were first incubated for 10 min at 72 °C and reincubated for 10 more min. Absorbance was measured at both 10 and 20 min total incubation time.

HγS = biological target: T1, HγS (Homo sapiens, UniProt P22914); experiment: Thermal aggregation (72 °C, 20 min) turbidity assay, HγS; conditions: HγS; 75 μM protein, 125 μM or less inhibitor (1.7:1), 72 °C 20 min
T1 sequence (P22914 1-178): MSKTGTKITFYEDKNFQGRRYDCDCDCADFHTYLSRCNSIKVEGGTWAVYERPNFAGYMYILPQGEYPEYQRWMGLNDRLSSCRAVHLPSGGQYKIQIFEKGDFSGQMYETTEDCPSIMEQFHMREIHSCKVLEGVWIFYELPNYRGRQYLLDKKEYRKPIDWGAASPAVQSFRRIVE
Description: as §1

HγS_N143D = biological target: T2, HγS_N143D (Homo sapiens, UniProt P22914, N144D); experiment: Thermal aggregation (72 °C, 20 min) turbidity assay, HγS_N143D; conditions: HγS_N143D; 75 μM protein, 125 μM or less inhibitor (1.7:1), 72 °C 20 min
T2 sequence (P22914 1-178 N144D): T1 sequence (P22914 1-178) with N144D
Description: as §1

HγD = biological target: T3, HγD (Homo sapiens, UniProt P07320); experiment: Thermal aggregation (72 °C) turbidity assay, recombinant HγD
T3 construct: made in house; host or cells: E. coli BL21(DE3) pLysS, pET3d vector
T3 sequence (P07320 1-174): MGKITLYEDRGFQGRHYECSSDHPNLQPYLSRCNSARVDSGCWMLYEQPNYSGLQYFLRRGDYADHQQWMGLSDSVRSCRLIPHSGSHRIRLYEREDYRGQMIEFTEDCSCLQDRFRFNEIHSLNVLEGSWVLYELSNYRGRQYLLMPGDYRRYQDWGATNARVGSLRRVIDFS
Description: For refinement of the aforementioned screen, these compounds were tested at concentrations varying from 50 to 500 μM and 1.5 mg/ml concentration of recombinant HγD, human gamma S (HγS), its deamidation mutants γS_N14, γS_N76, γS_N143 and its triple mutant γSTM (Fig. 1F). In addition, other drugs and compounds that tested positive in the initial screen were also included, such as escin (E), hematein (I), citric acid (CA), docusate sodium (DS), and sennoside A (S) (Fig. S1B). […] For a review, see the study by Roskamp et al. ([38]). […] Thus, drug C and drug G emerged as the strongest antidenaturation/aggregation and potential anticataract drugs. For the mechanistic studies below these two compounds together with either drug M, chosen mostly as negative control, or the entire set of six compounds were used for comparison purpose, whereby the words “drug” or “compound” are used interchangeably in the studies later.
(§3) For end-point assays, HγD and MγS (1 mg/ml, 100 μl) in 50 mM K3PO4 buffer (pH 7.2) in set of triplicates in transparent flat bottom 96-well plates were heated at 72 °C for 20 min in the presence and absence of selected drugs at varying concentrations. Absorbance was measured at 600 nm with a SpectraMax iD5 (Molecular Devices).
HγD protein (2.5 mg/ml buffer A) was incubated at 72 °C for 20 min without or with 100 or 400 μM drug G or C in buffer A. Final DMSO concentration was 5% in all samples. […] Therefore, samples with and without 400 μM drug G were chosen for identification of drug G-induced miscleavage sites upon digestion with 25:1 protein:trypsin ratio (sequencing grade modified trypsin; Promega) in buffer A. After 4 h, samples were frozen at −80 °C until processed for determination of miscleavage sites using proteomics analysis. LC–MS/MS analysis was performed on an Orbitrap Eclipse mass spectrometer (Thermo Fisher Scientific) coupled with a Waters nanoAcquity UPLC system (Waters) in total 90 min run using a linear gradient range from 0 to 42% solvent B (0.1% formic acid in acetonitrile) versus solvent A (0.1% formic acid in water) at a flow rate of 300 nl/min. MS1 full mass spectra were acquired in the Orbitrap mass analyzer at the resolution of 120 K. MS/MS tandem mass spectra were generated in the ion trap mass analyzer by collision-induced dissociation of peptide ions at a normalized collision energy of 35%. The resulting MS/MS spectra were searched against human gamma D protein database using Mass Matrix software (MassMatrix, Inc) with the mass errors of 10 ppm and 0.8 Da for MS1 and MS/MS scans, respectively. The oxidation of methionine was set for variable modifications, and three miscleavages were allowed for the search.
as §2

WT-MγS = biological target: T4, WT-MγS (Mus musculus, UniProt O35486); experiment: End-point heat-mediated turbidity assay, WT-MγS; conditions: 400 μM drug, 72 °C, protein above 0.5 mg/ml
T4 construct: made in house; host or cells: E. coli BL21(DE3) pLysS, pET17b vector
T4 sequence (O35486 1-178): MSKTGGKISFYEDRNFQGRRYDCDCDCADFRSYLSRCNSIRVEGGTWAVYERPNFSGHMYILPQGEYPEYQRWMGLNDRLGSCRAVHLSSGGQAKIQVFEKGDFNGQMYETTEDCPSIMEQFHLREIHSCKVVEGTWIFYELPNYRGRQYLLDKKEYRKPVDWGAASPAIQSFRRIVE
Description: as §3, with “Devices). […]” for “Devices).”
as §2

Molecule: O=C(O)c1cc(O)c2c(c1)[C@H]([C@H]1c3cc(C(=O)O)cc(O)c3C(=O)c3c(O[C@@H]4O[C@H](CO)[C@@H](O)[C@H](O)[C@H]4O)cccc31)c1cccc(O[C@@H]3O[C@H](CO)[C@@H](O)[C@H](O)[C@H]3O)c1C2=O [drug S, sennoside A]
- Outcome in the library screen (effect on aggregation/turbidity at 600 nm) (bovine gamma crystallins): positive

Molecule: O=C1C=C2CC3(O)COc4c(ccc(O)c4O)C3=C2C=C1O (centres unmarked) [drug I, hematein]
- Outcome in the library screen (effect on aggregation/turbidity at 600 nm) (bovine gamma crystallins): positive

Molecule: COc1ccc([C@@H]2CC(=O)c3c(O)cc(O)cc3O2)cc1O [hesperetin]
- Outcome in the library screen (effect on aggregation/turbidity at 600 nm) (bovine gamma crystallins): no impact

Molecule: O=c1c(O)c(-c2ccc(O)cc2O)oc2cc(O)cc(O)c12 [morin]
- Outcome in the library screen (effect on aggregation/turbidity at 600 nm) (bovine gamma crystallins): no impact

Molecule: Cc1c(C(=O)O)c(O)cc2c1C(=O)c1c(O)c(C3O[C@H](CO)[C@@H](O)[C@H](O)[C@H]3O)c(O)c(O)c1C2=O (stereo in doubt) [carmine]
- Outcome in the library screen (effect on aggregation/turbidity at 600 nm) (bovine gamma crystallins): no impact

Molecule: O=C(O)CC(O)(CC(=O)O)C(=O)O [CA, citric acid]
- Outcome in the library screen (effect on aggregation/turbidity at 600 nm) (bovine gamma crystallins): positive

Molecule: CCCCC(CC)COC(=O)CC(C(=O)OCC(CC)CCCC)S(=O)(=O)O (centres unmarked) [drug DS, docusate sodium]
- Outcome in the library screen (effect on aggregation/turbidity at 600 nm) (bovine gamma crystallins): positive

Molecule: CCCCCCCCCCCCCCOS(=O)(=O)[O-].[Na+] [drug T, tetradecyl sulfate sodium]
- Thermal denaturation inhibitory activity in subscreen (Bovine γ-crystallins): thermal denaturation inhibitory activity
- % Suppression (HγS): 40%
- % Suppression (HγS_N143D): 42%

Molecule: pool 1: purified high–molecular weight bovine α-crystallins, used as positive control
- Inhibition of pool 4 protein aggregation by positive control (Bovine γ-crystallins; thermal aggregation): potently inhibit
- Inhibition of HγD aggregation by positive control (HγD; thermal aggregation): potently inhibit

Molecule: O=C(O[C@@H]1Cc2c(O)cc(O)cc2O[C@@H]1c1cc(O)c(O)c(O)c1)c1cc(O)c(O)c(O)c1 [epigallocatechin gallate]
- Outcome in the library screen (effect on aggregation/turbidity at 600 nm) (bovine gamma crystallins): improved aggregation

Molecule: escin [drug E]
- Outcome in the library screen (effect on aggregation/turbidity at 600 nm) (bovine gamma crystallins): positive

Molecule: CCCCCCCCCCCCCCCCC(C(=O)O)C(O)(CC(=O)O)C(=O)O (centres unmarked) [drug A, agaric acid]
- Effect on BGC aggregation at 2.0 mg/ml at 10 min (Bovine γ-crystallins; 400 μM drug, 72 °C, 10 min): improved BGC aggregation; also recorded: protects
- Effect on HγD aggregation at low protein (HγD; 400 μM drug, 72 °C): not
- Effect on HγD at 2.0 mg/ml and 20 min (HγD; 400 μM drug, 72 °C, 20 min): suppressed; also recorded: protects
- Effect on MγS absorbance (WT-MγS): blocked absorbance; also recorded: protects

Molecule: C=CCCCCCCCCCCCC(O)CC(O)CO (centres unmarked) [drug V, avocadene]
- Thermal denaturation inhibitory activity in subscreen (Bovine γ-crystallins): thermal denaturation inhibitory activity
- % Suppression (Bovine γ-crystallins; Bovine γ-crystallins experiment 1): 36%
- % Suppression (Bovine γ-crystallins; Bovine γ-crystallins experiment 2): 53%

Molecule: hemin
- Outcome in the library screen (effect on aggregation/turbidity at 600 nm) (bovine gamma crystallins): positive

Molecule: CC1=C(CCC(=O)O)c2cc3[nH]c(cc4nc(cc5[nH]c(cc1n2)c(C)c5C(C)O)C(C)=C4C(C)O)c(C)c3CCC(=O)O (centres unmarked) [drug H, hematoporphyrin]
- Outcome in the library screen (effect on aggregation/turbidity at 600 nm) (bovine gamma crystallins): positive
- Thermal denaturation inhibitory activity in subscreen (Bovine γ-crystallins): thermal denaturation inhibitory activity

Molecule: O=c1c(O)c(-c2ccc(O)c(O)c2)oc2cc(O)cc(O)c12 [quercetin]
- Outcome in the library screen (effect on aggregation/turbidity at 600 nm) (bovine gamma crystallins): worsened aggregation

Molecule: CC(C)=CCC[C@@H](C)[C@H]1CC[C@@]2(C)C3=C(CC[C@]12C)[C@@]1(C)CC[C@H](O)C(C)(C)[C@@H]1CC3 [lanosterol]
- Outcome in the library screen (effect on aggregation/turbidity at 600 nm) (bovine gamma crystallins): no impact
